Laboratory results published in article PMC5581743, “Synthesis, characterization, anti-ulcer action and molecular docking evaluation of novel benzimidazole-pyrazole hybrids” (Chemistry Central Journal, 2017).

System: ethanol-induced gastric ulcers in rats
Assay: ethanol-induced gastric ulcer model in rats (anti-ulcerogenic activity)
Format: in vivo, Albino rats
Set-up: key to Ulcer index: sum of lesion lengths (mm) per stomach
Settings: for Ulcer index: mean ± SEM, n = 5; for % Inhibition: versus saline group
Experimental: Albino rats (weighing 180-220 g) were housed at the animal house of the […] Institute of Pharmaceutical Sciences under controlled environment (23-25 °C). Animals were kept in plastic cages with sawdust (changed at every 48 h) and were fasted for 24 h before starting the experiment. Animals were provided with tap water ad libitum and standard pellet diet. Experiments performed complied with rules of Institute of Laboratory Animal Resources, Commission on Life Sciences University, National Research Council (1996) and were approved by Ethical Committee of […] Institute of Pharmaceutical Sciences, […] International University. Albino rats (180-220 g) of either sex were divided into different groups (n = 5). Animals were fasted for 24 h before the study, but had free access to water. Animals in the control group received only normal saline (10 mL/kg). Compound 5a at doses of 100 and 500 μg/kg, (p. o.) was given to the animals in the treatment group. Same procedure was repeated for Compund 5b, 5c, 5d, 5e and 5f. Omeprazole (30 mg/kg) was used as a standard. The rats were sacrificed 1 h later and the stomach removed and observed for ulcers in the glandular region. The surface area of each lesion was measured and scored by method with described by Tan et al. with some modifications. The ulcer index for each rat was taken as the mean ulcer score (0: no ulcer; 1: US ≤ 0.5 mm^2; 2: 0.5 < US ≤ 2.5 mm^2; 3: 2.5 mm^2 < US ≤ 5 mm^2; 4: 5 mm^2 < US ≤ 10 mm^2; 5: 10 mm^2 < US ≤ 15 mm^2; 6: 15 mm^2 < US ≤ 20 mm^2; 7: 20 mm^2 < US ≤ 25 mm^2; 8: 25 mm^2 < US ≤ 30 mm^2; 9: 30 mm^2 < US ≤ 35 mm^2; 10: US > 35 mm^2). The sum of the length (mm) of all the lesions for each stomach was used as the ulcer index (UI). The percentage of inhibition (% I) was calculated using the following formula: %I=USc-USt×100/USc where USc = ulcer surface area of control and USt = ulcer surface area of test animal. The anti-ulcer activity of all the benzimidazole-pyrazole hybrids 5a-f was tested in vivo by ethanol-induced gastric ulcer model in rats. Rats received test compounds in two different doses; 100 and 500 μg/kg orally. Omeprazole (30 mg/kg) was used as a standard. The rats were sacrificed 1 h later and the stomach removed and observed for ulcers in the glandular region. The surface area of each lesion was measured and scored by method. […] Figure 2 show the gastric mucosa of rats. […] The results clearly indicated the greater anti-ulcer potential of our synthesized compounds as compared to omeprazole, the currently used anti-ulcer drug. […] It was observed that substitution pattern of both the aromatic rings attached to pyrazole ring effect the anti-ulcer activity. The highest activity was shown by compound 5d i.e. 83.1% at 500 μg/kg dose. All the compounds were docked against H^+/K^+ ATPase to assess the binding affinities and compared with Omeprazole which is a known mercapto benzimidazole derivative and H^+/K^+ ATPase inhibitor. […] 5d has maximum binding affinity of -9.8 kcal/mole due to maximum number of hydrogen bonding interactions with the target.

[1] = 100 µg/kg p.o. + ethanol (1 mL/100 g)
[2] = 500 µg/kg p.o. + ethanol (1 mL/100 g)
[3] = 30 mg/kg + ethanol (1 mL/100 g)

O=C(CSc1nc2ccccc2[nH]1)n1nc(-c2ccccc2O)cc1-c1ccccc1O [Compound 5b, 2-(1H-benzimidazol-2-ylsulfanyl)-1-[3,5-bis(2-hydroxyphenyl)-1H-pyrazol-1-yl]ethanone]
Ulcer index [1]: 3.48 ± 0.008
% Inhibition [1]: 30.2%
Ulcer index [2]: 1.26 ± 0.009
% Inhibition [2]: 74.7%

COc1ccc(-c2cc(-c3ccccc3O)n(C(=O)CSc3nc4ccccc4[nH]3)n2)cc1O [Compound 5c, 2-(1H-benzimidazol-2-ylsulfanyl)-1-[5-(2-hydroxyphenyl)-3-(3-hydroxy-4-methoxyphenyl) -1H-pyrazol-1-yl]ethanone]
Ulcer index [1]: 3.52 ± 0.009
% Inhibition [1]: 29.4%
Ulcer index [2]: 1.48 ± 0.009
% Inhibition [2]: 70.3%

COc1ccc2[nH]c([S+]([O-])Cc3ncc(C)c(OC)c3C)nc2c1 (centres unmarked) [Omeprazole, reference compound]
Ulcer index [3]: 0.84 ± 0.01
% Inhibition [3]: 83.1%
% Inhibition (30 mg/kg + ethanol (1 mL/100 g), listed as omeprazole): 83%

O=C(CSc1nc2ccccc2[nH]1)n1nc(-c2ccccc2)cc1-c1ccccc1 [Compound 5e, 2-(1H-benzimidazol-2-ylsulfanyl)-1-(3,5-diphenyl-1H-pyrazol-1-yl)ethanone]
Ulcer index [1]: 3.18 ± 0.01
% Inhibition [1]: 36.2%
Ulcer index [2]: 1.06 ± 0.01
% Inhibition [2]: 79%

O=C(CSc1nc2ccccc2[nH]1)n1nc(-c2ccccc2)cc1-c1ccccc1O [Compound 5a, 2-(1H-benzimidazol-2-ylsulfanyl)-1-[5-(2-hydroxyphenyl)-3-phenyl-1H-pyrazol-1-yl]ethanone]
Ulcer index [1]: 3.22 ± 0.009
% Inhibition [1]: 35.4%
Ulcer index [2]: 1.07 ± 0.008
% Inhibition [2]: 78.5%

COc1ccc(-c2cc(-c3ccccc3)nn2C(=O)CSc2nc3ccccc3[nH]2)cc1O [Compound 5f, 2-(1H-benzimidazol-2-ylsulfanyl)-1-[5-(3-hydroxy-4-methoxyphenyl)-3-phenyl-1H-pyrazol-1-yl]ethanone]
Ulcer index [1]: 3.75 ± 0.016
% Inhibition [1]: 24.8%
Ulcer index [2]: 1.39 ± 0.02
% Inhibition [2]: 72.1%
